Assay results published in US10022376B2 (Pfizer Inc., priority 2014, dated 2018).
Where a name gives a salt, the structure may show the parent alone.

Each compound was assayed on rhIFNγ stimulated STAT-3 phosphorylation in the A549 human epithelial cell line (assay: A549 Cell Assay: Inhibition of pSTAT3). Conditions: A549 cells.
Type: cell-based
Description: A549 Cell Assay: Inhibition of pSTAT3
An assay measuring the efficacy of JAK inhibitors on the functional response of recombinant human interferon γ (rhIFNγ) stimulated STAT-3 phosphorylation in the A549 human epithelial cell line.
A549 cells (ATCC #CCL-185), were plated at 30,000 cells/well in 96 well flat bottomed tissue culture plates (BD#353072) in 200 μL of growth medium (DMEM, Pfizer media prep, with 10% Fetal Bovine Serum, Sigma #F4135, 2 mM L-Glutamine, Pfizer media prep, 100 U/mL penicillin, Pfizer media prep, and 200 μg/ml streptomycin, Pfizer media prep), and cultured at 37° C., 5% CO2 incubator for 18 hours. Growth medium was removed by vacuum aspiration (V&P Scientific #vp187 bp-60), and 90 μL of pre-warmed assay medium (DMEM with 0.2% BSA, Miltenyi #130-091-376) was added to each well and incubated for 15 minutes at 37° C. 10 μL of vehicle control or test compound (final concentration range of 0.3 nM to 10 μM with 0.1% DMSO) was added to the cells. Plates were incubated at 37° C. for 1 hour. After compound incubation, 10 μL of 220 ng/mL recombinant human IFNγ (R&D Systems #285-IF, final rhIFNγ concentration of 20 ng/mL) was added to the cells and plates were incubated for 30 minutes at 37° C. Wells containing A549 cells, medium with 0.1% DMSO and no rhIFNγ were used as background controls. After rhIFNγ stimulation, media was aspirated from each well and 35 μL/well of iced-cold MSD lysis buffer containing protease and phosphatase inhibitors from Phospho-STAT3 Tyr705 assay kit (Meso-Scale Discovery #K150DID) was added to each well. Plates were incubated at 4° C. with shaking for 30 minutes. Cell lysates were assayed following the MSD Phospho-STAT3 Tyr705 assay kit protocol to detect pSTAT3.
Data were collected and transformed into percent inhibition and calculated using the following formula: […]

IC50 [nM]	SMILES
126	CNC(=O)c1n[nH]c2nc(-c3cc(F)c(O)cc3CC(F)(F)F)nc(NCc3ccccc3N(C)S(C)(=O)=O)c12 [Example 94]

Same assay, conditions: Homo sapiens; A549 cells

IC50 [nM]	SMILES
> 10000	CNC(=O)c1n[nH]c2nc(-c3cc(F)c(O)cc3CC(F)(F)F)nc(NCc3ccccc3N(C)S(=O)(=O)NC)c12 [Example 110, 6-(5-Fluoro-4-hydroxy-2-(2,2,2-trifluoroethyl)phenyl)-N-methyl-4-((2-(methyl(N-methylsulfamoyl)amino)benzyl)amino)-1H-pyrazolo[3,4-d]pyrimidine-3-carboxamide]
98.6	CN(c1ccccc1CNc1nc(-c2cc(F)c(O)cc2CC(F)(F)F)cc2[nH]nc(-n3cccn3)c12)S(C)(=O)=O [Example 163, N-{2-[({6-[5-Fluoro-4-hydroxy-2-(2,2,2-trifluoroethyl)phenyl]-3-(1H-pyrazol-1-yl)-1H-pyrazolo[4,3-c]pyridin-4-yl}amino)methyl]phenyl}-N-methylmethanesulfonamide]
292	CNC(=O)c1n[nH]c2nc(-c3cc(F)c(O)cc3CC(F)(F)F)nc(NCc3cc(F)ccc3N(C)S(C)(=O)=O)c12 [Example 104, 4-((5-fluoro-2-(N-methylmethylsulfonamido)benzyl)amino)-6-(5-fluoro-4-hydroxy-2-(2,2,2-trifluoroethyl)phenyl)-N-methyl-1H-pyrazolo[3,4-d]pyrimidine-3-carboxamide]
13.3	CCc1cc(O)c(F)cc1-c1cc2[nH]ncc2c(NCc2ccccc2N(CC)S(=O)(=O)CC)n1 [Example 136, N-ethyl-N-[2-({[6-(2-ethyl-5-fluoro-4-hydroxyphenyl)-1H-pyrazolo[4,3-c]pyridin-4-yl]amino}-methyl)phenyl]ethanesulfonamide hydrochloride]
62.4	CCc1cc(O)c(F)cc1-c1cc2[nH]ncc2c(N(CCc2ccc(OC)c(OC)c2)Cc2ccccc2N(C)S(C)(=O)=O)n1 [Example 129, N-[2-({[2-(3,4-dimethoxyphenyl)ethyl][6-(2-ethyl-5-fluoro-4-hydroxyphenyl)-1H-pyrazolo[4,3-c]pyridin-4-yl]amino}methyl)phenyl]-N-methylmethanesulfonamide hydrochloride]

Second part, the compound before the results:

SMILES	IC50 [nM]
CS(=O)(=O)N(CCO)c1ccccc1CNc1nc(-c2cc(F)c(O)cc2CC(F)(F)F)cc2[nH]nc(C(N)=O)c12 [Example 27, 6-[5-fluoro-4-hydroxy-2-(2,2,2-trifluoroethyl)phenyl]-4-({2-[(2-hydroxyethyl)(methylsulfonyl)amino]benzyl}amino)-1H-pyrazolo[4,3-c]pyridine-3-carboxamide]	874
CNC(=O)c1n[nH]c2cc(-c3cc(F)c(O)cc3C3CC3)nc(NCc3cccnc3N(C)S(C)(=O)=O)c12 [Example 49, 6-(2-cyclopropyl-5-fluoro-4-hydroxyphenyl)-N-methyl-4-[({2-[methyl(methylsulfonyl)amino]pyridin-3-yl}methyl)amino]-1H-pyrazolo[4,3-c]pyridine-3-carboxamide]	385
CCN(c1nccnc1CNc1nc(-c2cc(F)c(O)cc2CC(F)(F)F)cc2[nH]nc(C(=O)NC)c12)S(C)(=O)=O [Example 45, 4-[({3-[ethyl(methylsulfonyl)amino]pyrazin-2-yl}methyl)amino]-6-[5-fluoro-4-hydroxy-2-(2,2,2-trifluoroethyl)phenyl]-N-methyl-1H-pyrazolo[4,3-c]pyridine-3-carboxamide]	46.5
CCc1cc(O)c(F)cc1-c1cc2[nH]nc(C(=O)NC)c2c(NCc2cc(F)ccc2N(C)S(C)(=O)=O)n1 [Example 7, 6-(2-ethyl-5-fluoro-4-hydroxyphenyl)-4-({5-fluoro-2-[methyl(methylsulfonyl)amino]benzyl}amino)-N-methyl-1H-pyrazolo[4,3-c]pyridine-3-carboxamide]	5.7
CCc1cc(O)c(F)cc1-c1cc2[nH]nc(C(=O)NC)c2c(NCCc2ccc(O)cc2)n1 [Example 4, 6-(2-ethyl-5-fluoro-4-hydroxyphenyl)-4-{[2-(4-hydroxyphenyl)ethyl]amino}-N-methyl-1H-pyrazolo[4,3-c]pyridine-3-carboxamide]	29.7
CN(c1ncc(F)cc1CNc1nc(-c2cc(F)c(O)cc2CC(F)(F)F)cc2[nH]nc(C(N)=O)c12)S(C)(=O)=O [Example 78, 6-[5-Fluoro-4-hydroxy-2-(2,2,2-trifluoroethyl)phenyl]-4-[({5-fluoro-2-[methyl(methyl-sulfonyl)amino]pyridin-3-yl}methyl)amino]-1H-pyrazolo[4,3-c]pyridine-3-carboxamide]	27.2
CCc1cc(O)c(F)cc1-c1cc2[nH]nc(C(N)=O)c2c(NCc2ccccc2N(C)S(=O)(=O)c2ccccc2)n1 [Example 40, 6-(2-Ethyl-5-fluoro-4-hydroxyphenyl)-4-({2-[methyl(phenylsulfonyl)amino]benzyl}amino)-1H-pyrazolo[4,3-c]pyridine-3-carboxamide]	50
CNC(=O)c1n[nH]c2cc(-c3cc(F)c(O)cc3C3CC3)nc(NCc3ccccc3N(C)S(C)(=O)=O)c12 [Example 37, 6-(2-cyclopropyl-5-fluoro-4-hydroxyphenyl)-N-methyl-4-({2-[methyl(methylsulfonyl)amino]benzyl}amino)-1H-pyrazolo[4,3-c]pyridine-3-carboxamide]	47.4
CCN(c1nccnc1CNc1nc(-c2cc(F)c(O)cc2CC(F)(F)F)cc2[nH]nc(C(N)=O)c12)S(C)(=O)=O [Example 80, 4-[({3-[ethyl(methylsulfonyl)amino]pyrazin-2-yl}methyl)amino]-6-[5-fluoro-4-hydroxy-2-(2,2,2-trifluoroethyl)phenyl]-1H-pyrazolo[4,3-c]pyridine-3-carboxamide]	197
CCN(c1ccc(F)cc1CNc1nc(-c2cc(F)c(O)cc2CC(F)(F)F)cc2[nH]nc(C(N)=O)c12)S(C)(=O)=O [Example 83, 4-((2-(N-ethylmethylsulfonamido)-5-fluorobenzyl)amino)-6-(5-fluoro-4-hydroxy-2-(2,2,2-trifluoroethyl)phenyl)-1H-pyrazolo[4,3-c]pyridine-3-carboxamide]	30
CNC(=O)c1n[nH]c2cc(-c3cc(F)c(O)cc3CC(F)(F)F)nc(NCc3cnccc3N(C)S(C)(=O)=O)c12 [Example 48, 6-[5-fluoro-4-hydroxy-2-(2,2,2-trifluoroethyl)phenyl]-N-methyl-4-[({4-[methyl(methylsulfonyl)amino]pyridin-3-yl}methyl)amino]-1H-pyrazolo[4,3-c]pyridine-3-carboxamide]	> 10000
CCN(c1ccccc1CNc1nc(-c2cc(F)c(O)cc2CC(F)(F)F)cc2[nH]nc(C(N)=O)c12)S(C)(=O)=O [Example 90, 4-({2-[ethyl(methylsulfonyl)amino]benzyl}amino)-6-[5-fluoro-4-hydroxy-2-(2,2,2-trifluoroethyl)phenyl]-1H-pyrazolo[4,3-c]pyridine-3-carboxamide]	30.4
CCN(c1ncccc1CNc1nc(-c2cc(F)c(O)cc2CC(F)(F)F)cc2[nH]nc(C(N)=O)c12)S(C)(=O)=O [Example 52, 4-[({2-[ethyl(methylsulfonyl)amino]pyridin-3-yl}methyl)amino]-6-[5-fluoro-4-hydroxy-2-(2,2,2-trifluoroethyl)phenyl]-1H-pyrazolo[4,3-c]pyridine-3-carboxamide]	74.3
